From patent US20040192910A1, “Sulfonylamino derivatives useful as herbicides” (priority 2001, published 2004)

Assays:
Format in all cases: in vivo
Set-up in all cases: key: 1=total damage; 9=no action
Digitaria [1] = experiment: Post-emergence herbicidal action; conditions: 250 g a.i./ha (500 litres water/ha), sprayed at 4- to 6-leaf stage, evaluated after about 18 days; scale of nine ratings, 1 to 4 = good to very good action
Source text: (§1) Post-Emergence Herbicidal Action
(§2) Monocotyledonous and dicotyledonous test plants are raised in a greenhouse in plastic pots containing standard soil and at the 4- to 6-leaf stage are sprayed with an aqueous suspension of the test compounds of formula I (prepared from a 25% wettable powder (Example F3, b) according to WO 97/34485) or with an emulsion of the test compounds of formula I (prepared from a 25% emulsifiable concentrate (Example F1, c) according to WO 97/34485) at a rate of application corresponding to 250 g a.i./ha (500 litres water/ha). The test plants are then grown on in the greenhouse under optimum conditions. After a test duration of about 18 days, the test is evaluated in accordance with a scale of nine ratings (1=total damage, 9=no action). Ratings of from 1 to 4 (especially from 1 to 3) indicate good to very good herbicidal action.

Amarantus [2] = experiment: Post-emergence herbicidal action; conditions: 250 g a.i./ha (500 litres water/ha), sprayed at 4- to 6-leaf stage, evaluated after about 18 days; scale of nine ratings, 1 to 4 = good to very good action
Source text: as §1, §2

Stellaria = experiment: Post-emergence herbicidal action; conditions: 250 g a.i./ha (500 litres water/ha), sprayed at 4- to 6-leaf stage, evaluated after about 18 days; scale of nine ratings, 1 to 4 = good to very good action
Source text: as §1, §2

Panicum [3] = experiment: Post-emergence herbicidal action; conditions: 250 g a.i./ha (500 litres water/ha), sprayed at 4- to 6-leaf stage, evaluated after about 18 days; scale of nine ratings, 1 to 4 = good to very good action
Source text: as §1, §2

Setaria = experiment: Post-emergence herbicidal action; conditions: 250 g a.i./ha (500 litres water/ha), sprayed at 4- to 6-leaf stage, evaluated after about 18 days; scale of nine ratings, 1 to 4 = good to very good action
Source text: as §1, §2

Brachiaria [4] = experiment: Post-emergence herbicidal action; conditions: 250 g a.i./ha (500 litres water/ha), sprayed at 4- to 6-leaf stage, evaluated after about 18 days; scale of nine ratings, 1 to 4 = good to very good action
Source text: as §1, §2

Abutilon [5] = experiment: Post-emergence herbicidal action; conditions: 250 g a.i./ha (500 litres water/ha), sprayed at 4- to 6-leaf stage, evaluated after about 18 days; scale of nine ratings, 1 to 4 = good to very good action
Source text: as §1, §2

Chenopodium [6] = experiment: Post-emergence herbicidal action; conditions: 250 g a.i./ha (500 litres water/ha), sprayed at 4- to 6-leaf stage, evaluated after about 18 days; scale of nine ratings, 1 to 4 = good to very good action
Source text: as §1, §2

Echinochloa = experiment: Pre-emergence herbicidal action; conditions: 250 g a.i./ha (500 litres water/ha), sprayed immediately after sowing, evaluated after 3 weeks; scale of nine ratings, 1 to 4 = good to very good action
Source text: (§3) Herbicidal Action Prior to Emergence of the Plants (Pre-Emergence Action) Monocotyledonous and dicotyledonous test plants are sown in standard soil in plastic pots. Immediately after sowing, an aqueous suspension (prepared from a 25% wettable powder (Example F3, b) according to WO 97/34485) or an emulsion (prepared from a 25% emulsifiable concentrate (Example F1, c)) of the test compounds is applied by spraying at a rate of application corresponding to 250 […]). The test plants are then cultivated in a greenhouse under optimum conditions.

Digitaria [7] = experiment: Pre-emergence herbicidal action; conditions: 250 g a.i./ha (500 litres water/ha), sprayed immediately after sowing, evaluated after 3 weeks; scale of nine ratings, 1 to 4 = good to very good action
Source text: as §3

Amarantus [8] = experiment: Pre-emergence herbicidal action; conditions: 250 g a.i./ha (500 litres water/ha), sprayed immediately after sowing, evaluated after 3 weeks; scale of nine ratings, 1 to 4 = good to very good action
Source text: as §3

Panicum [9] = experiment: Pre-emergence herbicidal action; conditions: 250 g a.i./ha (500 litres water/ha), sprayed immediately after sowing, evaluated after 3 weeks; scale of nine ratings, 1 to 4 = good to very good action
Source text: as §3

Euphoria = experiment: Pre-emergence herbicidal action; conditions: 250 g a.i./ha (500 litres water/ha), sprayed immediately after sowing, evaluated after 3 weeks; scale of nine ratings, 1 to 4 = good to very good action
Source text: as §3

Brachiaria [10] = experiment: Pre-emergence herbicidal action; conditions: 250 g a.i./ha (500 litres water/ha), sprayed immediately after sowing, evaluated after 3 weeks; scale of nine ratings, 1 to 4 = good to very good action
Source text: as §3

Abutilon [11] = experiment: Pre-emergence herbicidal action; conditions: 250 g a.i./ha (500 litres water/ha), sprayed immediately after sowing, evaluated after 3 weeks; scale of nine ratings, 1 to 4 = good to very good action
Source text: as §3

Chenopodium [12] = experiment: Pre-emergence herbicidal action; conditions: 250 g a.i./ha (500 litres water/ha), sprayed immediately after sowing, evaluated after 3 weeks; scale of nine ratings, 1 to 4 = good to very good action
Source text: as §3

SMILES | Post-emergence action, rating, Digitaria (Digitaria [1]) | Post-emergence action, rating, Amarantus (Amarantus [2]) | Post-emergence action, rating, Stellaria (Stellaria) | Post-emergence action, rating, Panicum (Panicum [3]) | Post-emergence action, rating, Setaria (Setaria) | Post-emergence action, rating, Brachiaria (Brachiaria [4]) | Post-emergence action, rating, Abutilon (Abutilon [5]) | Post-emergence action, rating, Chenopodium (Chenopodium [6]) | Pre-emergence action, rating, Echinochloa (Echinochloa) | Pre-emergence action, rating, Digitaria (Digitaria [7]) | Pre-emergence action, rating, Amarantus (Amarantus [8]) | Pre-emergence action, rating, Panicum (Panicum [9]) | Pre-emergence action, rating, Euphoria (Euphoria) | Pre-emergence action, rating, Brachiaria (Brachiaria [10]) | Pre-emergence action, rating, Abutilon (Abutilon [11]) | Pre-emergence action, rating, Chenopodium (Chenopodium [12])
Cc1nc(C(F)(F)F)ccc1C(=O)C1=C(Cl)C(C)(C)C(=O)C(C)(C)C1=NS(C)(=O)=O [1.001, N-[3-chloro-4,4,6,6-tetramethyl-2-(2-methyl-6-trifluoromethyl-pyridine-3-carbonyl)-5-oxo-cyclohex-2-en-ylidene]-methanesulfonamide] | 1 | 2 | 2 | 1 | 1 | 1 | 2 | 2 | – | – | – | – | – | – | – | –
Cc1nc(C(F)(F)F)ccc1C(=O)C1=C(Cl)C(C)(C)C(=O)C(C)(C)C1=NS(=O)(=O)c1cccnc1F [1.026, N-[3-chloro-5-oxo-4,4,6,6-tetramethyl-2-(2-methyl-6-trifluoromethyl-pyridine-3-carbonyl)-cyclohex-2-en-ylidene]-3-(2′-fluoropyridyl)sulfonamide] | 1 | 1 | 2 | 1 | 1 | 2 | 1 | 1 | 1 | 1 | 1 | 1 | 2 | 1 | 1 | 1
Cc1nc(C(F)(F)F)ccc1C(=O)C1=C(Cl)C(C)(C)C(=O)C(C)(C)C1=NS(=O)(=O)c1ccccc1 [1.027] | 2 | 2 | 1 | 2 | 1 | 2 | 1 | 1 | 1 | 1 | 1 | 1 | 1 | 1 | 1 | 1
C=CS(=O)(=O)N=C1C(C(=O)c2ccc(C(F)(F)F)nc2C)=C(Cl)C(C)(C)C(=O)C1(C)C [1.028, N-[3-chloro-3-oxo-4,4,6,6-tetramethyl-2-(2-methyl-6-trifluoromethyl-pyridine-3-carbonyl)-cyclohex-2-en-ylidene]-vinylsulfonamide] | 1 | 2 | 1 | 1 | 1 | 2 | 1 | 1 | 1 | 3 | 1 | 1 | 2 | 1 | 1 | 1
CSC1=C(C(=O)c2ccc(C(F)(F)F)nc2C)C(=NS(=O)(=O)c2cccnc2F)C(C)(C)C(=O)C1(C)C [1.078, N-[3-methylthio-5-oxo-4,4,6,6-tetramethyl-2-(2-methyl-6-trifluoromethyl-pyridine-3-carbonyl)-cyclohex-2-en-ylidene]-3-(2′-fluoropyridyl)sulfonamide] | 1 | 2 | 3 | 1 | 2 | 3 | 1 | 1 | 1 | 1 | 1 | 1 | 2 | 2 | 1 | 1
CSC1=C(C(=O)c2ccc(C(F)(F)F)nc2C)C(=NS(=O)(=O)c2ccccc2)C(C)(C)C(=O)C1(C)C [1.079] | 2 | 2 | 1 | 2 | 2 | 2 | 2 | 1 | 1 | 1 | 1 | 1 | 2 | 1 | 1 | 1
